In patent publication US20240252461A1, “COMPOSITIONS AND METHODS FOR TREATMENT OF DEMYELINATION” (priority 2018, published 2024):

How the values were obtained:
[1] = Blood-brain barrier penetration: DFO concentration in rat brain after IP injection; format: in vivo; details: for fraction of DFO that infiltrated the brain / DFO (mg/g organ) / DFO (mg/whole organ): SD rats; for fraction of DFO that infiltrated the brain: 90 min; for DFO (mg/g organ): brain; for DFO (mg/whole organ): whole brain
Method: In this study, the ability of the Zn-DFO complex to infiltrate into the brain was examined. Rats were injected intraperitoneally (IP) with increasing amounts of DFO alone or Zn-DFO complex, and the concentration of DFO was measured in their brains, thus monitoring their infiltrability.
(§1) In particular, male Sprague-Dawley (SD) rats (300 g average body weight, 3 animals per group) were injected IP with DFO (250, 500, or 1000 mg/kg body weight). For comparison, Zn-DFO solution in freshly prepared saline was injected IP (250, 500, or 1000 mg/kg body weight, which are equivalent to 221, 442, or 883 mg DFO/kg body weight, respectively).
(§2) The behavior of the rats was monitored for 90 min following the injection. Then, the animals were euthanized using an injection of ketamine-xylazine, and their hearts, livers, left kidneys, and brains were excised and weighted. Brain samples (300 mg tissue) were washed homogenized in 3 ml Lysis buffer. Tissue homogenates were incubated at 110° C. for 5 min and centrifuged for 5 min at 14,500 relative centrifugal force (RCF). An equal volume of 40% trichloroacetic acid (TCA) solution was added, forming a solution containing 20% TCA, which was vortexed and centrifuged again. The supernatants were transferred into cuvettes, and DFO concentration was spectrophotometrically measured, after addition of 10 mM of ferric iron solution (as a weak complex of iron, ferric-nitrilo-triacetate, at pH=7.4), and scanning the range of λ=380−580 nm. The final concentration was calculated according to the Beer-Lambert law, using εDFO=2460 M^−1cm^−1: the total amount of DFO per gram tissue and per whole brain were calculated.

[2] = Behavior of rats monitored for 90 min following IP injection; format: in vivo, rat; details: the three doses (250, 500, 1000 mg/kg IP)
Method: as §1, §2

[3] = test system: Experimental Autoimmune Encephalomyelitis (EAE) model; assay: Murine Experimental Autoimmune Encephalomyelitis (EAE) model of multiple sclerosis; format: in vivo, C57BL/6 mice; details: glatiramer acetate 200 μg SC on day 0, alone
Method: In this study, the therapeutic effect of treatment with glatiramer acetate (Copaxone®) alone or in combination with Zn-DFO on multiple sclerosis (MS) is tested, using the murine Experimental Autoimmune Encephalomyelitis (EAE) model.
EAE is induced in 8-week-old female C57BL/6 mice by subcutaneous (SC) injection of 125 μg of myelin oligodendrocyte glycoprotein 35-55 peptide (MOG35-55) emulsified in complete Freund's adjuvant (CFA) containing 5 mg/ml heat-killed Mycobacterium tuberculosis into the left para-lumbar region. Immediately thereafter, and again at 48 h, the mice are inoculated intraperitoneal (IP) with 0.5 ml of pertussis toxin (400 ng). Seven days later, the mice are further challenged with an additional injection of MOG35-55 peptide in CFA injected into the right para-lumbar region.
Mice are treated with SC injection of 200 (μg glatiramer acetate (Copaxone®) per animal in mannitol 4% emulsion on day 0. Part of the animals are continued to be treated with Zn-DFO as IP injections, 2 mg/kg or 6 mg/kg, thrice a week till the end of the experiment (Day 28). Two additional groups of mice are treated with Zn-DFO analogously, but without the preceding injection with glatiramer acetate. The severity of the disease is assessed using the scale shown in Table 2 (Bittner et al. 2014).

[4] = test system: MS; details: cited from earlier work
[5] = 90 min after IP injection of 250 mg/kg
[6] = 90 min after IP injection of 500 mg/kg
[7] = 90 min after IP injection of 1000 mg/kg

Row | Molecule | fraction of DFO that infiltrated the brain ([1]; IP 250 mg/kg) | fraction of DFO that infiltrated the brain ([1]; IP 500 mg/kg) | fraction of DFO that infiltrated the brain ([1]; IP 1000 mg/kg) | DFO (mg/g organ) [1, 5] | DFO (mg/g organ) [1, 6] | DFO (mg/g organ) [1, 7] | fraction of DFO that had infiltrated into the brain ([1]; corresponding doses (250, 500, 1000 mg/kg IP), limited sensitivity of the instrument) | DFO (mg/whole organ) [1, 5] | DFO (mg/whole organ) [1, 6] | DFO (mg/whole organ) [1, 7] | rats' behavior after injection [2] | day on which peak clinical score is reached [3] | onset of the disease [3] | effect on the main outcome measures in MS (disease progression) ([4]; La Mantia et al., 2010) | reduction of relapses ([4]; relapsing-remitting MS, Hassan-Smith et al., 2011)
1 | CC(=O)N(O)CCCCCNC(=O)CCC(=O)N(O)CCCCCNC(=O)CCC(=O)N(O)CCCCCN [DFO, N′-[5-(acetyl-hydroxy-amino)pentyl]-N-[5-[3-(5-aminopentyl-hydroxy-carbamoyl)propanoylamino]pentyl]-N-hydroxy-butane diamide] | <0.0015% | <0.0015% | 0.002% | <0.005 mg/g organ | <0.005 mg/g organ | 0.008 ± 0.004 mg/g organ | ≤ 0.002% | <0.005 mg/whole organ | <0.005 mg/whole organ | 0.019 ± 0.008 mg/whole organ | no changes in rats' behavior | – | – | – | –
2 | glatiramer acetate | – | – | – | – | – | – | – | – | – | – | – | 17 days | 14 days | did not show any beneficial effect | approximately 30%
